Experimental data from patent US9695155B2, “Herbicidal substituted pyrimidinyloxy benzene compounds” (E. I. DU PONT DE NEMOURS AND COMPANY, priority 2013, dated 2017).

Tests used:
[1] = system: barnyardgrass; test: Test A preemergence; assay type: in vivo, Echinochloa crus-galli; conditions: for Plant response rating, Barnyardgrass: 125 g ai/ha, 0 to 100 scale where 0 is no effect and 100 is complete control; for Barnyardgrass plant response rating: 500 g ai/ha, 0 to 100 scale, 0 no effect, 100 complete control, approx. 10 days
Method in brief: (§1)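 Injury scores run from 0, no effect, to 100, complete control, judged by eye against untreated plants roughly 10 days after treatment. Chemicals carried a surfactant in a non-phytotoxic solvent and went onto loam–sand soil preemergence or onto one- to two-leaf seedlings postemergence.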

[2] = system: large (Lg) crabgrass; test: Test A preemergence; assay type: in vivo, Digitaria sanguinalis; conditions: for Plant response rating, Crabgrass, Large: 125 g ai/ha, 0 to 100 scale where 0 is no effect and 100 is complete control; for Crabgrass, Large plant response rating: 500 g ai/ha, 0 to 100 scale, 0 no effect, 100 complete control, approx. 10 days
Method in brief: as §1

[3] = system: giant foxtail; test: Test A preemergence; assay type: in vivo, Setaria faberii; conditions: for Plant response rating, Foxtail, Giant: 125 g ai/ha, 0 to 100 scale where 0 is no effect and 100 is complete control; for Foxtail, Giant plant response rating: 500 g ai/ha, 0 to 100 scale, 0 no effect, 100 complete control, approx. 10 days
Method in brief: as §1

[4] = system: morningglory; test: Test A preemergence; assay type: in vivo, Ipomoea spp.; conditions: for Plant response rating, Morningglory: 125 g ai/ha, 0 to 100 scale where 0 is no effect and 100 is complete control; for Morningglory plant response rating: 500 g ai/ha, 0 to 100 scale, 0 no effect, 100 complete control, approx. 10 days
Method in brief: as §1

[5] = system: pigweed; test: Test A preemergence; assay type: in vivo, Amaranthus retroflexus; conditions: for Plant response rating, Pigweed: 125 g ai/ha, 0 to 100 scale where 0 is no effect and 100 is complete control; for Pigweed plant response rating: 500 g ai/ha, 0 to 100 scale, 0 no effect, 100 complete control, approx. 10 days
Method in brief: as §1

[6] = system: velvetleaf; test: Test A preemergence; assay type: in vivo, Abutilon theophrasti; conditions: for Plant response rating, Velvetleaf: 125 g ai/ha, 0 to 100 scale where 0 is no effect and 100 is complete control; for Velvetleaf plant response rating: 500 g ai/ha, 0 to 100 scale, 0 no effect, 100 complete control, approx. 10 days
Method in brief: as §1

[7] = system: wheat; test: Test A preemergence; assay type: in vivo, Triticum aestivum; conditions: for Plant response rating, Wheat: 125 g ai/ha, 0 to 100 scale where 0 is no effect and 100 is complete control; for Wheat plant response rating: 500 g ai/ha, 0 to 100 scale, 0 no effect, 100 complete control, approx. 10 days
Method in brief: as §1

[8] = system: corn; test: Test A preemergence; assay type: in vivo, Zea mays; conditions: for Plant response rating, Corn: 125 g ai/ha, 0 to 100 scale where 0 is no effect and 100 is complete control; for Corn plant response rating: 500 g ai/ha, 0 to 100 scale, 0 no effect, 100 complete control, approx. 10 days
Method in brief: as §1

[9] = system: barnyardgrass; test: Test A postemergence; assay type: in vivo, Echinochloa crus-galli
Method in brief: as §1

[10] = system: large (Lg) crabgrass; test: Test A postemergence; assay type: in vivo, Digitaria sanguinalis
Method in brief: as §1

[11] = system: giant foxtail; test: Test A postemergence; assay type: in vivo, Setaria faberii
Method in brief: as §1

[12] = system: morningglory; test: Test A postemergence; assay type: in vivo, Ipomoea spp.
Method in brief: as §1

[13] = system: pigweed; test: Test A postemergence; assay type: in vivo, Amaranthus retroflexus
Method in brief: as §1

[14] = system: velvetleaf; test: Test A postemergence; assay type: in vivo, Abutilon theophrasti
Method in brief: as §1

[15] = system: wheat; test: Test A postemergence; assay type: in vivo, Triticum aestivum
Method in brief: as §1

[16] = system: corn; test: Test A postemergence; assay type: in vivo, Zea mays
Method in brief: as §1

[17] = system: rice; test: Test B flooded paddy test; assay type: in vivo, Oryza sativa; conditions: Flood, 250 g ai/ha; 0 to 100 scale where 0 is no effect and 100 is complete control
Protocol: (§2) Plant species in the flooded paddy test selected from rice (Oryza sativa), sedge, umbrella (small-flower umbrella sedge, Cyperus difformis), (Heteranthera limosa), and barnyardgrass (Echinochloa crus-galli) were grown to the 2-leaf stage for testing. At time of treatment, test pots were flooded to 3 cm above the soil surface, treated by application of test compounds directly to the paddy water, and then maintained at that water depth for the duration of the test. Treated plants and controls were maintained in a greenhouse for 13 to 15 days, after which time all species were compared to controls and visually evaluated. Plant response ratings, summarized in Table B, are based on a scale of 0 to 100 where 0 is no effect and 100 is complete control. A dash (-) response means no test result.

[18] = system: sedge, umbrella; test: Test B flooded paddy test; assay type: in vivo, Cyperus difformis; conditions: Flood, 250 g ai/ha; 0 to 100 scale where 0 is no effect and 100 is complete control
Protocol: as §2

[19] = system: Heteranthera limosa; test: Test B flooded paddy test; assay type: in vivo; conditions: Flood, 250 g ai/ha; 0 to 100 scale where 0 is no effect and 100 is complete control
Protocol: as §2

[20] = system: barnyardgrass; test: Test B flooded paddy test; assay type: in vivo, Echinochloa crus-galli; conditions: Flood, 250 g ai/ha; 0 to 100 scale where 0 is no effect and 100 is complete control
Method in brief: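 Post-emergence paddy-water application at the 2-leaf stage, with 3 cm flood kept for the whole test. Response was judged visually relative to controls after 13 to 15 greenhouse days, 0 indicating no effect and 100 complete control.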

[21] = 125 g ai/ha, 0 to 100 scale where 0 is no effect and 100 is complete control
[22] = 500 g ai/ha, 0 to 100 scale, 0 no effect, 100 complete control

Structure (SMILES) | Plant response rating, Barnyardgrass [1] | Barnyardgrass plant response rating [1] | Plant response rating, Crabgrass, Large [2] | Crabgrass, Large plant response rating [2] | Plant response rating, Foxtail, Giant [3] | Foxtail, Giant plant response rating [3] | Plant response rating, Morningglory [4] | Morningglory plant response rating [4] | Plant response rating, Pigweed [5] | Pigweed plant response rating [5] | Plant response rating, Velvetleaf [6] | Velvetleaf plant response rating [6] | Plant response rating, Wheat [7] | Wheat plant response rating [7] | Plant response rating, Corn [8] | Corn plant response rating [8] | Plant response rating, Barnyardgrass [9, 21] | Plant response rating, Barnyardgrass [9, 22] | Plant response rating, Crabgrass, Large [10, 21] | Plant response rating, Crabgrass, Large [10, 22] | also measured
Brc1cnc(Oc2ccccc2-n2ccc(Br)n2)nc1 [Compound 20] | 0 | 20 | 20 | 90 | 20 | 80 | 0 | 0 | 30 | 90 | 0 | 0 | 0 | 0 | 0 | 0 | 0 | 30 | 0 | 30 | Plant response rating, Foxtail, Giant [11, 21]: 0; Plant response rating, Foxtail, Giant [11, 22]: 60; Plant response rating, Morningglory [12, 21]: 40; Plant response rating, Morningglory [12, 22]: 40; Plant response rating, Pigweed [13, 21]: 80; Plant response rating, Pigweed [13, 22]: 100; Plant response rating, Velvetleaf [14, 21]: 20; Plant response rating, Velvetleaf [14, 22]: 70; Plant response rating, Wheat [15, 21]: 0; Plant response rating, Wheat [15, 22]: 20; Plant response rating, Corn [16, 21]: 0; Plant response rating, Corn [16, 22]: 30; Plant response rating, Rice [17]: 45; Plant response rating, Sedge, Umbrella [18]: 75; Plant response rating, Ducksalad [19]: 60; Plant response rating, Barnyardgrass [20]: 20
Clc1cnc(Oc2ccccc2-n2ccc(Br)n2)nc1 [Compound 21] | 20 | 30 | 90 | 100 | 70 | 100 | 0 | 0 | 90 | 100 | 0 | 20 | 0 | 0 | 0 | 0 | 0 | 40 | 20 | 50 | Plant response rating, Foxtail, Giant [11, 21]: 30; Plant response rating, Foxtail, Giant [11, 22]: 90; Plant response rating, Morningglory [12, 21]: 40; Plant response rating, Morningglory [12, 22]: 80; Plant response rating, Pigweed [13, 21]: 90; Plant response rating, Pigweed [13, 22]: 100; Plant response rating, Velvetleaf [14, 21]: 50; Plant response rating, Velvetleaf [14, 22]: 80; Plant response rating, Wheat [15, 21]: 0; Plant response rating, Wheat [15, 22]: 20; Plant response rating, Corn [16, 21]: 0; Plant response rating, Corn [16, 22]: 30; Plant response rating, Rice [17]: 15; Plant response rating, Sedge, Umbrella [18]: 70; Plant response rating, Ducksalad [19]: 40; Plant response rating, Barnyardgrass [20]: 25
Clc1cnc(Oc2ccccc2-n2cc(-c3ccccc3)cn2)nc1 [Compound 22] | 0 | 20 | 20 | 90 | 20 | 90 | 0 | 0 | 20 | 90 | 0 | 20 | 0 | 0 | 0 | 0 | 50 | 70 | 30 | 70 | Plant response rating, Foxtail, Giant [11, 21]: 40; Plant response rating, Foxtail, Giant [11, 22]: 90; Plant response rating, Morningglory [12, 21]: 80; Plant response rating, Morningglory [12, 22]: 90; Plant response rating, Pigweed [13, 21]: 50; Plant response rating, Pigweed [13, 22]: 100; Plant response rating, Velvetleaf [14, 21]: 50; Plant response rating, Velvetleaf [14, 22]: 100; Plant response rating, Wheat [15, 21]: 0; Plant response rating, Wheat [15, 22]: 0; Plant response rating, Corn [16, 21]: 0; Plant response rating, Corn [16, 22]: 30; Plant response rating, Rice [17]: 40; Plant response rating, Sedge, Umbrella [18]: 80; Plant response rating, Ducksalad [19]: 65; Plant response rating, Barnyardgrass [20]: 20
CC=Cc1cnn(-c2ccccc2Oc2ncc(Cl)cn2)c1 [Compound 27] | 0 | 20 | 0 | 50 | 0 | 40 | 0 | 0 | 10 | 20 | 0 | 10 | 0 | 0 | 0 | 0 | 0 | 10 | 20 | 60 | Plant response rating, Foxtail, Giant [11, 21]: 0; Plant response rating, Foxtail, Giant [11, 22]: 30; Plant response rating, Morningglory [12, 21]: 10; Plant response rating, Morningglory [12, 22]: 50; Plant response rating, Pigweed [13, 21]: 60; Plant response rating, Pigweed [13, 22]: 70; Plant response rating, Velvetleaf [14, 21]: 50; Plant response rating, Velvetleaf [14, 22]: 70; Plant response rating, Wheat [15, 21]: 0; Plant response rating, Wheat [15, 22]: 0; Plant response rating, Corn [16, 21]: 0; Plant response rating, Corn [16, 22]: 10; Plant response rating, Rice [17]: 0; Plant response rating, Sedge, Umbrella [18]: 75; Plant response rating, Ducksalad [19]: 75; Plant response rating, Barnyardgrass [20]: 0
C=Cc1cnn(-c2ccccc2Oc2ncc(Cl)cn2)c1 [Compound 31] | 20 | 50 | 50 | 90 | 20 | 90 | 0 | 0 | 40 | 60 | 50 | 90 | 0 | 0 | 0 | 0 | 10 | 50 | 50 | 60 | Plant response rating, Foxtail, Giant [11, 21]: 40; Plant response rating, Foxtail, Giant [11, 22]: 50; Plant response rating, Morningglory [12, 21]: 0; Plant response rating, Morningglory [12, 22]: 30; Plant response rating, Pigweed [13, 21]: 40; Plant response rating, Pigweed [13, 22]: 70; Plant response rating, Velvetleaf [14, 21]: 100; Plant response rating, Velvetleaf [14, 22]: 100; Plant response rating, Wheat [15, 21]: 0; Plant response rating, Wheat [15, 22]: 0; Plant response rating, Corn [16, 21]: 0; Plant response rating, Corn [16, 22]: 20; Plant response rating, Rice [17]: 25; Plant response rating, Sedge, Umbrella [18]: 30; Plant response rating, Ducksalad [19]: 80; Plant response rating, Barnyardgrass [20]: 0
